Measured values published in ChEMBL document CHEMBL1201862, “PubChem BioAssay data set” (2004).
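Cultured in 96-well plates, cells were exposed to test compound for 48 hours across five concentrations. Here, GI50 denotes the concentration required for 50% inhibition of growth.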 The source made the active and inactive calls. No stated cut-off is given here; in the data, active = GI50 up to about 1.1 µM and inactive = higher.

Key:
Assay in all cases: NCI-60 cell line screen, 48 h
IGROV-1 = system: IGROV-1
NCI-H23 = system: NCI-H23
EKVX = system: EKVX
OVCAR-5 = system: OVCAR-5
U-251 = system: U-251
SK-MEL-2 = system: SK-MEL-2
T47D = system: T47D
SW-620 = system: SW-620
TK-10 = system: TK-10
SR = system: SR
NCI/ADR-RES = system: NCI/ADR-RES
RPMI-8226 = system: RPMI-8226
PC-3 = system: PC-3
UACC-62 = system: UACC-62
786-0 = system: 786-0
HCC 2998 = system: HCC 2998
CAKI-1 = system: CAKI-1
OVCAR-4 = system: OVCAR-4
HOP-92 = system: HOP-92
COLO 205 = system: COLO 205
BT-549 = system: BT-549
LOX IMVI = system: LOX IMVI
CCRF-CEM = system: CCRF-CEM
RXF 393 = system: RXF 393
Malme-3M = system: Malme-3M
SK-OV-3 = system: SK-OV-3
SK-MEL-28 = system: SK-MEL-28
HL-60 = system: HL-60
HCT-15 = system: HCT-15
UO-31 = system: UO-31
KM12 = system: KM12
A549 = system: A549
SN12C = system: SN12C
SNB-75 = system: SNB-75
MDA-N = system: MDA-N
NCI-H460 = system: NCI-H460
UACC-257 = system: UACC-257
A498 = system: A498
ACHN = system: ACHN
Hs-578T = system: Hs-578T
DU-145 = system: DU-145
OVCAR-3 = system: OVCAR-3
MDA-MB-435 = system: MDA-MB-435
SF-539 = system: SF-539
MDA-MB-231 = system: MDA-MB-231
MCF7 = system: MCF7
M14 = system: M14
HCT-116 = system: HCT-116
HT-29 = system: HT-29
K562 = system: K562
SNB-19 = system: SNB-19
HOP-62 = system: HOP-62
SF-295 = system: SF-295
SK-MEL-5 = system: SK-MEL-5
SF-268 = system: SF-268
OVCAR-8 = system: OVCAR-8
MOLT-4 = system: MOLT-4
NCI-H522 = system: NCI-H522

## CCCCCCCCCCCCCC(=O)OCC(CCS(=O)(=O)O[C@H]1CC[C@@]2(C)C(=CC[C@@H]3C2CC[C@]2(C)C(=O)CCC32)C1)OC(=O)CCCCCCCCCCCCC (stereo partly specified)
IGROV-1
  GI50: > 100 µM (inactive)
NCI-H23
  GI50: > 100 µM (inactive)
EKVX
  GI50: > 100 µM (inactive)
OVCAR-5
  GI50: > 100 µM (inactive)
U-251
  GI50: > 100 µM (inactive)
SK-MEL-2
  GI50: > 100 µM (inactive)
T47D
  GI50: > 100 µM (inactive)
SW-620
  GI50: > 100 µM (inactive)
TK-10
  GI50: > 100 µM (inactive)
SR
  GI50: > 100 µM (inactive)
NCI/ADR-RES
  GI50: > 100 µM (inactive)
RPMI-8226
  GI50: > 100 µM (inactive)
PC-3
  GI50: > 100 µM (inactive)
UACC-62
  GI50: > 100 µM (inactive)
786-0
  GI50: > 100 µM (inactive)
HCC 2998
  GI50: > 100 µM (inactive)
CAKI-1
  GI50: > 100 µM (inactive)
OVCAR-4
  GI50: > 100 µM (inactive)
HOP-92
  GI50: > 100 µM (inactive)
COLO 205
  GI50: > 100 µM (inactive)
BT-549
  GI50: > 100 µM (inactive)
LOX IMVI
  GI50: > 100 µM (inactive)
CCRF-CEM
  GI50: > 100 µM (inactive)
RXF 393
  GI50: > 100 µM (inactive)
Malme-3M
  GI50: > 100 µM (inactive)
SK-OV-3
  GI50: > 100 µM (inactive)
SK-MEL-28
  GI50: > 100 µM (inactive)
HL-60
  GI50: > 100 µM (inactive)
HCT-15
  GI50: > 100 µM
UO-31
  GI50: > 100 µM (inactive)
KM12
  GI50: > 100 µM (inactive)
A549
  GI50: > 100 µM (inactive)
SN12C
  GI50: > 100 µM (inactive)
SNB-75
  GI50: > 100 µM (inactive)
MDA-N
  GI50: > 100 µM (inactive)
NCI-H460
  GI50: > 100 µM (inactive)
UACC-257
  GI50: > 100 µM (inactive)
A498
  GI50: > 100 µM (inactive)
ACHN
  GI50: > 100 µM (inactive)
Hs-578T
  GI50: > 100 µM (inactive)
DU-145
  GI50: > 100 µM (inactive)
OVCAR-3
  GI50: > 100 µM (inactive)
MDA-MB-435
  GI50: > 100 µM (inactive)
SF-539
  GI50: > 100 µM (inactive)
MDA-MB-231
  GI50: > 100 µM (inactive)
MCF7
  GI50: > 100 µM (inactive)
M14
  GI50: > 100 µM (inactive)
HCT-116
  GI50: > 100 µM (inactive)
HT-29
  GI50: > 100 µM (inactive)
K562
  GI50: > 100 µM (inactive)
SNB-19
  GI50: > 100 µM (inactive)
HOP-62
  GI50: > 100 µM (inactive)
SF-295
  GI50: > 100 µM (inactive)
SK-MEL-5
  GI50: > 100 µM (inactive)
SF-268
  GI50: > 100 µM (inactive)

## CC1CCN(c2nnc(Cl)cc2C(=O)c2ccccc2)CC1
IGROV-1
  GI50: 35.3 µM (inactive)
NCI-H23
  GI50: 25.5 µM (inactive)
EKVX
  GI50: 29.8 µM (inactive)
OVCAR-5
  GI50: 77.4 µM (inactive)
U-251
  GI50: 31.1 µM (inactive)
SK-MEL-2
  GI50: 18.5 µM (inactive)
T47D
  GI50: 31.5 µM (inactive)
SW-620
  GI50: 22.1 µM (inactive)
OVCAR-8
  GI50: 58.7 µM (inactive)
MOLT-4
  GI50: 20.7 µM (inactive)
TK-10
  GI50: 37.6 µM (inactive)
SR
  GI50: 17.5 µM (inactive)
NCI/ADR-RES
  GI50: 36.6 µM (inactive)
PC-3
  GI50: 20.4 µM (inactive)
UACC-62
  GI50: 26.8 µM (inactive)
786-0
  GI50: 41.7 µM (inactive)
HCC 2998
  GI50: 30.5 µM (inactive)
CAKI-1
  GI50: 17.9 µM (inactive)
OVCAR-4
  GI50: 29.2 µM (inactive)
HOP-92
  GI50: 16 µM (inactive)
COLO 205
  GI50: 21.9 µM (inactive)
BT-549
  GI50: 30.3 µM (inactive)
LOX IMVI
  GI50: 29.4 µM (inactive)
CCRF-CEM
  GI50: 13.5 µM (inactive)
RXF 393
  GI50: 16.9 µM (inactive)
SK-MEL-28
  GI50: 39.3 µM (inactive)
HL-60
  GI50: 44.4 µM (inactive)
HCT-15
  GI50: 35.6 µM
UO-31
  GI50: 23.1 µM (inactive)
KM12
  GI50: 18 µM (inactive)
A549
  GI50: 32.1 µM (inactive)
SN12C
  GI50: 50.7 µM (inactive)
SNB-75
  GI50: 27.5 µM (inactive)
MDA-N
  GI50: 21.7 µM (inactive)
NCI-H460
  GI50: 29.5 µM (inactive)
UACC-257
  GI50: 18.7 µM (inactive)
A498
  GI50: 35.7 µM (inactive)
ACHN
  GI50: 49.9 µM (inactive)
Hs-578T
  GI50: 20 µM (inactive)
DU-145
  GI50: 38.3 µM (inactive)
OVCAR-3
  GI50: 22.4 µM (inactive)
MDA-MB-435
  GI50: 21.5 µM (inactive)
SF-539
  GI50: 25.4 µM (inactive)
MDA-MB-231
  GI50: 27.5 µM (inactive)
MCF7
  GI50: 19.4 µM (inactive)
M14
  GI50: 27 µM (inactive)
HCT-116
  GI50: 29.6 µM (inactive)
HT-29
  GI50: 17.7 µM (inactive)
K562
  GI50: 53 µM (inactive)
SNB-19
  GI50: 26.9 µM (inactive)
HOP-62
  GI50: 28.4 µM (inactive)
NCI-H522
  GI50: 26.7 µM (inactive)
SF-295
  GI50: 24.7 µM (inactive)
SK-MEL-5
  GI50: 16.6 µM (inactive)
SF-268
  GI50: 1.67 µM (inactive)

## Cc1ccc(C(=O)Cc2nc3c([nH]c2=O)c(C)nn3-c2ccccc2)c(C)c1
IGROV-1
  GI50: > 10 µM (inactive)
NCI-H23
  GI50: > 10 µM (inactive)
U-251
  GI50: > 10 µM (inactive)
T47D
  GI50: 5.45 µM (inactive)
SW-620
  GI50: 6.59 µM (inactive)
OVCAR-8
  GI50: 8.22 µM (inactive)
MOLT-4
  GI50: > 10 µM (inactive)
TK-10
  GI50: > 10 µM (inactive)
SR
  GI50: > 10 µM (inactive)
NCI/ADR-RES
  GI50: 6.53 µM (inactive)
RPMI-8226
  GI50: > 10 µM (inactive)
PC-3
  GI50: > 10 µM (inactive)
UACC-62
  GI50: > 10 µM (inactive)
786-0
  GI50: 3.55 µM (inactive)
HCC 2998
  GI50: > 10 µM (inactive)
CAKI-1
  GI50: > 10 µM (inactive)
OVCAR-4
  GI50: 2.29 µM (inactive)
HOP-92
  GI50: 6.04 µM (inactive)
COLO 205
  GI50: > 10 µM (inactive)
BT-549
  GI50: > 10 µM (inactive)
LOX IMVI
  GI50: > 10 µM (inactive)
CCRF-CEM
  GI50: 5.69 µM (inactive)
Malme-3M
  GI50: > 10 µM (inactive)
SK-OV-3
  GI50: > 10 µM (inactive)
SK-MEL-28
  GI50: > 10 µM (inactive)
HL-60
  GI50: 9.04 µM (inactive)
HCT-15
  GI50: > 10 µM
KM12
  GI50: > 10 µM (inactive)
A549
  GI50: 6.85 µM (inactive)
SN12C
  GI50: > 10 µM (inactive)
SNB-75
  GI50: 1.01 µM (active)
MDA-N
  GI50: > 10 µM (inactive)
UACC-257
  GI50: > 10 µM (inactive)
ACHN
  GI50: > 10 µM (inactive)
Hs-578T
  GI50: > 10 µM (inactive)
DU-145
  GI50: > 10 µM (inactive)
OVCAR-3
  GI50: 3.25 µM (inactive)
MDA-MB-435
  GI50: > 10 µM (inactive)
SF-539
  GI50: > 10 µM (inactive)
MDA-MB-231
  GI50: > 10 µM (inactive)
MCF7
  GI50: > 10 µM (inactive)
M14
  GI50: > 10 µM (inactive)
HCT-116
  GI50: 4.69 µM (inactive)
HT-29
  GI50: > 10 µM (inactive)
K562
  GI50: > 10 µM (inactive)
SNB-19
  GI50: > 10 µM (inactive)
HOP-62
  GI50: > 10 µM (inactive)
NCI-H522
  GI50: > 10 µM (inactive)
SF-295
  GI50: > 10 µM (inactive)
SK-MEL-5
  GI50: > 10 µM (inactive)
SF-268
  GI50: > 10 µM (inactive)
